Assay results as given in ChEMBL document CHEMBL5055626 (J Med Chem, 2021).
The source made the active and inactive calls. Where a SMILES comes first, the peptide text is derived from it. Bridges are numbered along the chain shown (N, C = ends).

Key:
[1] = biological target: Neuronal acetylcholine receptor; alpha2/beta2 (Rattus norvegicus) (UniProt P12389+P12390); experiment: Antagonist activity at rat alpha2beta2 nAChR expressed in xenopus oocytes assessed as inhibition of Ach- induced response at 10 uM at -70 mV holding potential preincubated for 5 mins followed by Ach stimulation by voltage-clamp based electrophysiological method; format: cell-based; conditions: Oocyte
[2] = biological target: Neuronal acetylcholine receptor; alpha2/beta4 (Rattus norvegicus) (UniProt P12389+P12392); experiment: Antagonist activity at rat alpha2beta4 nAChR expressed in xenopus oocytes assessed as inhibition of Ach- induced response at 10 uM at -70 mV holding potential preincubated for 5 mins followed by Ach stimulation by voltage-clamp based electrophysiological method; format: cell-based; conditions: Oocyte
[3] = biological target: Neuronal acetylcholine receptor; alpha2/beta4 (Rattus norvegicus, UniProt P12389+P12392); experiment: Antagonist activity at rat alpha2beta4 nAChR expressed in xenopus oocytes assessed as inhibition of Ach- induced response at -70 mV holding potential preincubated for 5 mins followed by Ach stimulation by voltage-clamp based electrophysiological method; format: cell-based, Oocyte
Neuronal acetylcholine receptor; alpha2/beta4, sequence (P12389 whole entry): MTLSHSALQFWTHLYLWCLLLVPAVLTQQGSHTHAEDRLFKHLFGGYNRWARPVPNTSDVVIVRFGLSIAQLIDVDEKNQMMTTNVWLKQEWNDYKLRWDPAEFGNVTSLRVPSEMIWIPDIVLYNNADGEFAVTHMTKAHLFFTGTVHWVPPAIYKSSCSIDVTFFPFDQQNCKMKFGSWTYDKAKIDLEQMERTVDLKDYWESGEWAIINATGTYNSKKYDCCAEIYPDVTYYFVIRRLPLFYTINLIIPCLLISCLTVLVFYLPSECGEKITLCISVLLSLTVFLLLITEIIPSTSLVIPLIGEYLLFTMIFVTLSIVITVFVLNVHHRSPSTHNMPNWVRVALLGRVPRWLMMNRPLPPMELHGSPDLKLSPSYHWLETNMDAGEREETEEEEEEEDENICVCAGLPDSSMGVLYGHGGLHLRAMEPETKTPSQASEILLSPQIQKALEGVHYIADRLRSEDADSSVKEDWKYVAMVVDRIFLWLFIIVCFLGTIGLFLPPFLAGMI
Neuronal acetylcholine receptor; alpha2/beta4, sequence (P12392 whole entry): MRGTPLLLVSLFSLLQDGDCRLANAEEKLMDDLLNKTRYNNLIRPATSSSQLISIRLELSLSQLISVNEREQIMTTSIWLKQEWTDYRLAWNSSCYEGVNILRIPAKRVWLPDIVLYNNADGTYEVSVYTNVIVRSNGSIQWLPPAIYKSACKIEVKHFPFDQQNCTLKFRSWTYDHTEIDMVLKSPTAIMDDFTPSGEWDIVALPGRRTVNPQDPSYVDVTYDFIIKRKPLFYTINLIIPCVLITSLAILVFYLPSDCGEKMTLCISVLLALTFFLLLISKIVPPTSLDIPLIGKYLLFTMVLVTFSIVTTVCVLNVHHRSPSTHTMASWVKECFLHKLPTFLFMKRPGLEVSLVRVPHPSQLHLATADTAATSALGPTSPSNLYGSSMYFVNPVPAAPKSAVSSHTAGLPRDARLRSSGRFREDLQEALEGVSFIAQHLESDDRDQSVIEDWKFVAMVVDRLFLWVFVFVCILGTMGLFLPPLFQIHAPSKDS

[4] = biological target: Neuronal acetylcholine receptor; alpha4/beta2 (Rattus norvegicus, UniProt P09483+P12390); experiment: Antagonist activity at rat alpha4beta2 nAChR expressed in xenopus oocytes assessed as inhibition of Ach- induced response at -70 mV holding potential preincubated for 5 mins followed by Ach stimulation by voltage-clamp based electrophysiological method; format: cell-based, Oocyte
[5] = biological target: Neuronal acetylcholine receptor; alpha2/beta2 (Rattus norvegicus, UniProt P12389+P12390); experiment: Antagonist activity at rat alpha2beta2 nAChR expressed in xenopus oocytes assessed as inhibition of Ach- induced response at -70 mV holding potential preincubated for 5 mins followed by Ach stimulation by voltage-clamp based electrophysiological method; format: cell-based, Oocyte
Neuronal acetylcholine receptor; alpha2/beta2, sequence (P12389 whole entry): as the sequence (P12389 whole entry) above
Neuronal acetylcholine receptor; alpha2/beta2, sequence (P12390 whole entry): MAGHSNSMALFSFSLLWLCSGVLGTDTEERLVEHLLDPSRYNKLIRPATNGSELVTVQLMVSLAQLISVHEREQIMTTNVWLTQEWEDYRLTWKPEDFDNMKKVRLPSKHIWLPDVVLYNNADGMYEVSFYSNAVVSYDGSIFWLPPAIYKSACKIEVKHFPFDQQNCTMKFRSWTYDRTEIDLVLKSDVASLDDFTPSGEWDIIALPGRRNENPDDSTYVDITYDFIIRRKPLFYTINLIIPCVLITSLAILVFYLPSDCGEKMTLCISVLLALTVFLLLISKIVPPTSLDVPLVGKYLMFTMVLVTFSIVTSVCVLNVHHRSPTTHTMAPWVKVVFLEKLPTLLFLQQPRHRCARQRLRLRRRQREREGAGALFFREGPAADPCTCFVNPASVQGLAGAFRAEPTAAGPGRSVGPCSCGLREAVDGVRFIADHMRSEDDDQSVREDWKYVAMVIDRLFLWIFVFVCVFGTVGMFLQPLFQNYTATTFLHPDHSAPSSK

[6] = biological target: T1, Nicotinic acetylcholine receptor alpha6/alpha3/beta4 (Homo sapiens, UniProt P30926+P32297+Q15825); experiment: Antagonist activity at rat alpha6/alpha3beta4 nAChR expressed in xenopus oocytes assessed as inhibition of Ach- induced response at 10^-5 M at -70 mV holding potential preincubated for 5 mins followed by Ach stimulation by voltage-clamp based electrophysiological method relative to control; format: cell-based; design: scale not given: the % may be the effect or the level left; conditions: Oocyte, filed as antagonist, dose 1.0 10^-5M
[7] = biological target: Neuronal acetylcholine receptor; alpha4/beta4 (Rattus norvegicus) (UniProt P09483+P12392); experiment: Antagonist activity at rat alpha4beta4 nAChR expressed in xenopus oocytes assessed as inhibition of Ach- induced response at 10 uM at -70 mV holding potential preincubated for 5 mins followed by Ach stimulation by voltage-clamp based electrophysiological method; format: cell-based; conditions: Oocyte
[8] = biological target: Nicotinic acetylcholine receptor alpha9/alpha10 (Rattus norvegicus) (UniProt P43144+Q9JLB5); experiment: Antagonist activity at rat alpha9alpha10 nAChR expressed in xenopus oocytes assessed as inhibition of Ach- induced response at 10 uM at -70 mV holding potential preincubated for 5 mins followed by Ach stimulation by voltage-clamp based electrophysiological method; format: cell-based; conditions: Oocyte
[9] = Antagonist activity at rat alpha6/ alpha3beta2beta3 nAChR expressed in xenopus oocytes assessed as inhibition of Ach- induced response at -70 mV holding potential preincubated for 5 mins followed by Ach stimulation by voltage-clamp based electrophysiological method; format: cell-based; conditions: Oocyte
[10] = biological target: Neuronal acetylcholine receptor; alpha4/beta2 (Rattus norvegicus) (UniProt P09483+P12390); experiment: Antagonist activity at rat alpha4beta2 nAChR expressed in xenopus oocytes assessed as inhibition of Ach- induced response at 10 uM at -70 mV holding potential preincubated for 5 mins followed by Ach stimulation by voltage-clamp based electrophysiological method; format: cell-based; conditions: Oocyte
[11] = biological target: Neuronal acetylcholine receptor subunit alpha-7 (Rattus norvegicus, UniProt Q05941); experiment: Antagonist activity at rat alpha7 nAChR expressed in xenopus oocytes assessed as inhibition of Ach- induced response at -70 mV holding potential preincubated for 5 mins followed by Ach stimulation by voltage-clamp based electrophysiological method; format: cell-based, Oocyte
Neuronal acetylcholine receptor subunit alpha-7, sequence (Q05941 whole entry): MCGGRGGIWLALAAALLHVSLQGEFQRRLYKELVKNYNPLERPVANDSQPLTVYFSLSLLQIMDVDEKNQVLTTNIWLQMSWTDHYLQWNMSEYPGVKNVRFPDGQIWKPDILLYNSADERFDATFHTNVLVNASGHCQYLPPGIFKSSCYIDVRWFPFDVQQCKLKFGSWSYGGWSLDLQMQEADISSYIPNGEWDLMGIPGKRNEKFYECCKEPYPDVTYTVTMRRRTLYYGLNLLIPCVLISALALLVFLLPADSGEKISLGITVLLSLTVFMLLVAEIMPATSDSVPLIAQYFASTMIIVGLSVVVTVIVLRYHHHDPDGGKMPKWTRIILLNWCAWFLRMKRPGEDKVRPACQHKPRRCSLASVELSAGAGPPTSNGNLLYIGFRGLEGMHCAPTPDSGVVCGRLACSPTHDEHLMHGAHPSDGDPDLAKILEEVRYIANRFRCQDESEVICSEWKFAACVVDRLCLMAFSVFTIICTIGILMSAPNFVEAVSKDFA

[12] = biological target: Neuronal acetylcholine receptor; alpha3/beta2 (Rattus norvegicus, UniProt P04757+P12390); experiment: Antagonist activity at rat alpha3beta2 nAChR expressed in xenopus oocytes assessed as inhibition of Ach- induced response at -70 mV holding potential preincubated for 5 mins followed by Ach stimulation by voltage-clamp based electrophysiological method; format: cell-based, Oocyte
Neuronal acetylcholine receptor; alpha3/beta2, sequence (P04757 whole entry): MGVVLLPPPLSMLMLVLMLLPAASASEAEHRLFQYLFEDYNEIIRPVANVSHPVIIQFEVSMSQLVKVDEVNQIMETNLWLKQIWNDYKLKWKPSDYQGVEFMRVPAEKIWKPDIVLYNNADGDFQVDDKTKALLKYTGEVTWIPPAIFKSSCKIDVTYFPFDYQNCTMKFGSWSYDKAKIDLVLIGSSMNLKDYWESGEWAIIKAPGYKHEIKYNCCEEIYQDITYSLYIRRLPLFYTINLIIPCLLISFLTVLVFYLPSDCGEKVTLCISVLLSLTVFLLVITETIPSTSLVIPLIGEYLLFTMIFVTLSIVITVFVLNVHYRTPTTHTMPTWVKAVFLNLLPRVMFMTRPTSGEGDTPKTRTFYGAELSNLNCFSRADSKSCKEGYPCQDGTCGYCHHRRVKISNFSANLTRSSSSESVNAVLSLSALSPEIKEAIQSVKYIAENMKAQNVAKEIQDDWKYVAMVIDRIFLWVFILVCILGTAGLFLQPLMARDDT
Neuronal acetylcholine receptor; alpha3/beta2, sequence (P12390 whole entry): as the sequence (P12390 whole entry) above

[13] = biological target: T1, Nicotinic acetylcholine receptor alpha6/alpha3/beta4; experiment: Antagonist activity at rat alpha6/alpha3beta4 nAChR expressed in xenopus oocytes assessed as inhibition of Ach- induced response at -70 mV holding potential preincubated for 5 mins followed by Ach stimulation by voltage-clamp based electrophysiological method; format: cell-based, Oocyte
[14] = biological target: Neuronal acetylcholine receptor; alpha3/beta4 (Rattus norvegicus, UniProt P04757+P12392); experiment: Antagonist activity at rat alpha3beta4 nAChR expressed in xenopus oocytes assessed as inhibition of Ach- induced response at -70 mV holding potential preincubated for 5 mins followed by Ach stimulation by voltage-clamp based electrophysiological method; format: cell-based, Oocyte
Neuronal acetylcholine receptor; alpha3/beta4, sequence (P04757 whole entry): as the sequence (P04757 whole entry) above
Neuronal acetylcholine receptor; alpha3/beta4, sequence (P12392 whole entry): as the sequence (P12392 whole entry) above

[15] = biological target: Neuronal acetylcholine receptor; alpha3/beta4 (Rattus norvegicus) (UniProt P04757+P12392); experiment: Antagonist activity at rat alpha3beta4 nAChR expressed in xenopus oocytes assessed as inhibition of Ach- induced response at 10 uM at -70 mV holding potential preincubated for 5 mins followed by Ach stimulation by voltage-clamp based electrophysiological method; format: cell-based; conditions: Oocyte
[16] = biological target: Neuronal acetylcholine receptor; alpha4/beta4 (Rattus norvegicus, UniProt P09483+P12392); experiment: Antagonist activity at rat alpha4beta4 nAChR expressed in xenopus oocytes assessed as inhibition of Ach- induced response at -70 mV holding potential preincubated for 5 mins followed by Ach stimulation by voltage-clamp based electrophysiological method; format: cell-based, Oocyte
[17] = biological target: Nicotinic acetylcholine receptor alpha9/alpha10 (Rattus norvegicus, UniProt P43144+Q9JLB5); experiment: Antagonist activity at rat alpha9alpha10 nAChR expressed in xenopus oocytes assessed as inhibition of Ach- induced response at -70 mV holding potential preincubated for 5 mins followed by Ach stimulation by voltage-clamp based electrophysiological method; format: cell-based, Oocyte
[18] = biological target: Neuronal acetylcholine receptor; alpha3/beta2 (Rattus norvegicus) (UniProt P04757+P12390); experiment: Antagonist activity at rat alpha3beta2 nAChR expressed in xenopus oocytes assessed as inhibition of Ach- induced response at 10^-5 M at -70 mV holding potential preincubated for 5 mins followed by Ach stimulation by voltage-clamp based electrophysiological method relative to control; format: cell-based; design: scale not given: the % may be the effect or the level left; conditions: Oocyte, filed as antagonist, dose 1.0 10^-5M

C[C@@H]1NC(=O)[C@@H]2CSSC[C@H](N)C(=O)N[C@@H](CSSC[C@@H](C(N)=O)NC(=O)[C@H](Cc3cnc[nH]3)NC(=O)[C@H](CCC(=O)O)NC(=O)[C@H](Cc3cnc[nH]3)NC1=O)C(=O)N[C@@H](CO)C(=O)N[C@@H](CC(N)=O)C(=O)N1CCC[C@H]1C(=O)N1CCC[C@H]1C(=O)N2 (H-CCSNPPCAHEHC-NH2; disulfide 1-7, 2-12)
1.81 µM: IC50 [11]
3.3 µM: IC50 [9]
4.63 µM: IC50 [12]
< 50%: Activity [6]
> 10 µM: IC50 [3] | IC50 [4] | IC50 [5] | IC50 [13] | IC50 [14] | IC50 [16] | IC50 [17]
inactive: inhibition [1] | inhibition [2] | inhibition [7] | inhibition [8] | inhibition [10] | inhibition [15]

C[C@@H]1NC(=O)[C@@H]2CSSC[C@H](NC(=O)[C@@H](N)CCC(N)=O)C(=O)N[C@@H](CSSC[C@@H](C(=O)N[C@@H](CCCNC(=N)N)C(=O)O)NC(=O)[C@H](Cc3cnc[nH]3)NC(=O)[C@H](CCC(=O)O)NC(=O)[C@H](Cc3cnc[nH]3)NC1=O)C(=O)N[C@@H](CO)C(=O)N[C@@H](CC(N)=O)C(=O)N1CCC[C@H]1C(=O)N1CCC[C@H]1C(=O)N2 (H-QCCSNPPCAHEHCR-OH; disulfide 2-8, 3-13)
1.76 µM: IC50 [11]
5.3 µM: IC50 [9]
inactive: inhibition [1] | inhibition [2] | inhibition [7] | inhibition [8] | inhibition [10] | inhibition [15]
< 50%: Activity [18]
> 10 µM: IC50 [3] | IC50 [4] | IC50 [5] | IC50 [12] | IC50 [13] | IC50 [14] | IC50 [16] | IC50 [17]
